Like-named read-outs stand apart in the source and are kept apart here.
Test: Food effect PK study, two single oral 1000 mg doses of abiraterone acetate, fed (high fat) vs fasted
Format: in vivo, human
Details: for clearance: read-out: Cl F obs (converted); for Vd/F: read-out: Vz F obs; for concentration at 1.017 h: sample time 1.017; for concentration at 6 h: sample time 6.000; for concentration at 2 h: sample time 2.000; for concentration at 4 h: sample time 4.000; for concentration at 8.033 h: sample time 8.033; for concentration at 24 h: sample time 24.000; for concentration at 48.083 h: sample time 48.083
Experimental: To measure the amount of abiraterone and abiraterone acetate in the samples, these compounds were extracted from 100 uL human plasma using solid phase extraction (SPE) with cation mixed-mode polymer cartridges. Extracts were evaporated to dryness before reconstitution and analysis. Chromatography was carried out using a Luna™ C5 column (5 μm, 50 mm×2.1 mm id) with a gradient mobile phase consisting of 10 mM ammonium acetate and 2% propan-2-ol in acetonitrile. The flow rate was 0.2 mL/min and the run time 10.5 minutes. Abiraterone and abiraterone acetate were ionized using the electrospray interface in positive ion mode. Detection of analytes was via tandem mass spectrometry (MS/MS) in the multiple reaction monitoring (MRM) mode.
PK modeling was conducted using a non-compartmental model, extra vascular input for plasma with WinNonLin Software®. Pharmacokinetic parameters estimated in the model include:
Based on the above results, the PK parameters for a single dose of 1000 mg/day of abiraterone acetate were further studied in the 3 subjects who were administered the 1000 mg/day dose and in 3 additional subjects. Two single oral doses (1000 mg) of abiraterone acetate were administered separately, one concomitantly with food of high fat content and one in fasting state. The first single dose was administered on day −9 with PK blood samples being taken at 1, 2, 4, 6, 8, 24, 48 and 72 hours post dose. The second single dose was administered on day −3 with PK blood samples being taken at 1, 2, 4, 6, 8, 24 and 48 hours post dose for analysis.

[1] = human, plasma, oral, 1000 mg, Patient 19, 1000 mg, Fasted
[2] = human, plasma, oral, 1000 mg, Patient 19, 1000 mg, Fed
[3] = human, plasma, oral, 1000 mg, Patient 19, Fasted
[4] = human, plasma, oral, 1000 mg, Patient 19, Fed
[5] = human, plasma, oral, 1000 mg, Patient 20, 1000 mg, Fasted
[6] = human, plasma, oral, 1000 mg, Patient 20, 1000 mg, Fed
[7] = human, plasma, oral, 1000 mg, Patient 20, Fasted
[8] = human, plasma, oral, 1000 mg, Patient 20, Fed
[9] = human, plasma, oral, 1000 mg, Patient 21, 1000 mg, Fasted
[10] = human, plasma, oral, 1000 mg, Patient 21, 1000 mg, Fed
[11] = human, plasma, oral, 1000 mg, Patient 21, Fasted
[12] = human, plasma, oral, 1000 mg, Patient 21, Fed
[13] = human, plasma, po, 1000 mg, mean, 1000 mg single oral dose, Fasted
[14] = human, plasma, po, 1000 mg, mean, 1000 mg single oral dose, Fed
[15] = mean, 1000 mg single oral dose, Fasted
[16] = mean, 1000 mg single oral dose, Fed

C[C@]12CC[C@H](O)CC1=CC[C@@H]1[C@@H]2CC[C@]2(C)C(c3cccnc3)=CC[C@@H]12 [Abiraterone]
concentration at 4.033 hr (human, plasma, oral, 1000 mg, Patient 15, Fed, sample time 4.033 hr): 484 nM | concentration at 6.083 hr (human, plasma, oral, 1000 mg, Patient 15, Fed, sample time 6.083 hr): 1120 nM | concentration at 8.067 hr (human, plasma, oral, 1000 mg, Patient 15, Fed, sample time 8.067 hr): 512 nM | concentration at 24.05 hr (human, plasma, oral, 1000 mg, Patient 15, Fed, sample time 24.050 hr): 84.3 nM | concentration at 46.05 hr (human, plasma, oral, 1000 mg, Patient 15, Fed, sample time 46.050 hr): 18.1 nM | clearance [1]: 12200 mL/min | Vd/F [1]: 8490 L | clearance [2]: 4900 mL/min | Vd/F [2]: 4250 L | AUC(0-inf) [3]: 3.91 µM·h | AUC(0-t) [3]: 3.8 µM·h | Cmax [3]: 432 nM | Tmax [3]: 6 h | concentration at 1.05 hr (human, plasma, oral, 1000 mg, Patient 19, Fasted, sample time 1.050 hr): 0 nM | concentration at 2.083 hr (human, plasma, oral, 1000 mg, Patient 19, Fasted, sample time 2.083 hr): 71.9 nM | concentration at 4.017 hr (human, plasma, oral, 1000 mg, Patient 19, Fasted, sample time 4.017 hr): 334 nM | concentration at 6 hr (human, plasma, oral, 1000 mg, Patient 19, Fasted, sample time 6.000 hr): 432 nM | concentration at 8.017 hr (human, plasma, oral, 1000 mg, Patient 19, Fasted, sample time 8.017 hr): 177 nM | concentration at 24.067 hr (human, plasma, oral, 1000 mg, Patient 19, Fasted, sample time 24.067 hr): 21.6 nM | concentration at 48.1 hr (human, plasma, oral, 1000 mg, Patient 19, Fasted, sample time 48.100 hr): 9.1 nM | AUC(0-inf) [4]: 9.73 µM·h | AUC(0-t) [4]: 9.47 µM·h | Cmax [4]: 1020 nM | Tmax [4]: 6.13 h | concentration at 0.967 hr (human, plasma, oral, 1000 mg, Patient 19, Fed, sample time 0.967 hr): 0 nM | concentration at 2.2 hr (human, plasma, oral, 1000 mg, Patient 19, Fed, sample time 2.200 hr): 466 nM | concentration at 3.933 hr (human, plasma, oral, 1000 mg, Patient 19, Fed, sample time 3.933 hr): 973 nM | concentration at 6.133 hr (human, plasma, oral, 1000 mg, Patient 19, Fed, sample time 6.133 hr): 1020 nM | concentration at 8 hr (human, plasma, oral, 1000 mg, Patient 19, Fed, sample time 8.000 hr): 344 nM | concentration at 23.717 hr (human, plasma, oral, 1000 mg, Patient 19, Fed, sample time 23.717 hr): 63.6 nM | concentration at 49.3 hr (human, plasma, oral, 1000 mg, Patient 19, Fed, sample time 49.300 hr): 18 nM | clearance [5]: 3680 mL/min | Vd/F [5]: 4880 L | clearance [6]: 2030 mL/min | Vd/F [6]: 3210 L | AUC(0-inf) [7]: 13 µM·h | AUC(0-t) [7]: 12.1 µM·h | Cmax [7]: 1700 nM | Tmax [7]: 2.27 h | concentration at 1.017 h [7]: 58.5 nM | concentration at 2.267 h (human, plasma, oral, 1000 mg, Patient 20, Fasted, sample time 2.267): 1700 nM | concentration at 3.833 h (human, plasma, oral, 1000 mg, Patient 20, Fasted, sample time 3.833): 1270 nM | concentration at 6 h [7]: 976 nM | concentration at 7.917 h (human, plasma, oral, 1000 mg, Patient 20, Fasted, sample time 7.917): 256 nM | concentration at 24.283 h (human, plasma, oral, 1000 mg, Patient 20, Fasted, sample time 24.283): 118 nM | concentration at 48.417 h (human, plasma, oral, 1000 mg, Patient 20, Fasted, sample time 48.417): 40.8 nM | AUC(0-inf) [8]: 23.5 µM·h | AUC(0-t) [8]: 22.8 µM·h | Cmax [8]: 1580 nM | Tmax [8]: 8.03 h | concentration at 1.017 h [8]: 32.2 nM | concentration at 2 h [8]: 201 nM | concentration at 4 h [8]: 422 nM | concentration at 6 h [8]: 1400 nM | concentration at 8.033 h [8]: 1580 nM | concentration at 24 h [8]: 152 nM | concentration at 47.517 h (human, plasma, oral, 1000 mg, Patient 20, Fed, sample time 47.517): 55.4 nM | concentration at 71.333 h (human, plasma, oral, 1000 mg, Patient 20, Fed, sample time 71.333): 25.3 nM | clearance [9]: 6610 mL/min | Vd/F [9]: 7190 L | clearance [10]: 6180 mL/min | Vd/F [10]: 5180 L | AUC(0-inf) [11]: 7.21 µM·h | AUC(0-t) [11]: 6.93 µM·h | Cmax [11]: 648 nM | Tmax [11]: 2.17 h | concentration at 1 h (human, plasma, oral, 1000 mg, Patient 21, Fasted, sample time 1.000): 414 nM | concentration at 2.167 h (human, plasma, oral, 1000 mg, Patient 21, Fasted, sample time 2.167): 648 nM | concentration at 4.15 h (human, plasma, oral, 1000 mg, Patient 21, Fasted, sample time 4.150): 360 nM | concentration at 6.117 h (human, plasma, oral, 1000 mg, Patient 21, Fasted, sample time 6.117): 396 nM | concentration at 8.05 h (human, plasma, oral, 1000 mg, Patient 21, Fasted, sample time 8.050): 231 nM | concentration at 24.333 h (human, plasma, oral, 1000 mg, Patient 21, Fasted, sample time 24.333): 65.5 nM | concentration at 48.083 h [11]: 16.4 nM | concentration at 71.7 h (human, plasma, oral, 1000 mg, Patient 21, Fasted, sample time 71.700): 15.2 nM | AUC(0-inf) [12]: 7.71 µM·h | AUC(0-t) [12]: 7.45 µM·h | Cmax [12]: 1280 nM | Tmax [12]: 6 h | concentration at 1.167 h (human, plasma, oral, 1000 mg, Patient 21, Fed, sample time 1.167): 17.3 nM | concentration at 2 h [12]: 64.3 nM | concentration at 4 h [12]: 102 nM | concentration at 6 h [12]: 1280 nM | concentration at 8.033 h [12]: 372 nM | concentration at 24 h [12]: 49.3 nM | concentration at 48.083 h [12]: 18.9 nM | AUC(0-inf) [13]: 5.32 µM·h | AUC(0-t) [13]: 5.03 µM·h | Cmax [13]: 659 nM | Tmax [13]: 3.09 h | Vd/F [13]: 10100 L | AUC(0-inf) [14]: 12.4 µM·h | AUC(0-t) [14]: 12.1 µM·h | Cmax [14]: 1400 nM | Tmax [14]: 5.21 h | Vd/F [14]: 3800 L | Cl F obs [15]: 861.6 L/h | HL [15]: 9.9 h | Cl F obs [16]: 260.2 L/h | HL [16]: 10.9 h | effect of food on drug levels (patient 21): negligible | difference in mean drug levels between the dosing regimes (fed vs fasted) (previously (before extended cohort)): up to a four fold difference

— patent US20090124587A1, “METHODS FOR TREATING CANCER USING 17alpha-HYDROXYLASE/C17,20-LYASE INHIBITORS” (priority 2007, published 2009)
